Laboratory results as given in patent publication US7923440B2, “Method of treating or preventing immune mediated disorders and pharmaceutical formulation for use therein” (Pantarhei Bioscience B.V., priority 2002, dated 2011).

Experiments:
[1] = tested on: male DBA/1 mice with collagen induced arthritis (CIA); assay: Collagen induced arthritis (CIA) in male DBA/1 mice, oral treatment; format: in vivo, mouse; settings: for average day of disease onset (arthritis): vehicle 25.4±0.64
Experimental: The ability of estetrol to alleviate the severity of immune mediated disorders and its possible side-effects were evaluated and compared with dexamethasone in mice developing collagen induced arthritis (CIA), which is another experimental system of autoimmune and chronic inflammatory disease, representing human arthritic diseases, particularly rheumatoid arthritis (RA).
Arthritis was induced in male DBA/1 mice using a two-step immunization protocol (Joosten et al., “Dual role of IL-12 in early and late stages of murine collagen type II arthritis”. J Immunol 1997; 159:4094-4102; Joosten et al., “IL-1β blockade prevents cartilage and bone destruction in murine type II collagen-induced arthritis, whereas TNFα blockade only ameliorates joint inflammation”. J Immunol 1999; 163:5049-55). This strain is highly susceptible to CIA induced with bovine type II collagen. On day 0, mice were immunized with bovine type II collagen (100 μg) emulsified in Freund's complete adjuvant (four subcutaneous injections in the back). On day 21, mice were boosted with an i.p. injection of 100 μg collagen type II diluted in PBS.
The effect of oral treatment with estetrol on collagen-induced arthritis was studied in a 6-week study design. From day 22 until the end of the study (day 42), the animals were treated once daily with vehicle (hydroxypropyl-beta-cyclodextrin in a 20% wt/vol solution in water) serving as negative control or four different dosages of estetrol (3 mg/kg, 1 mg/kg, 0.3 mg/kg and 0.1 mg/kg). Dexamethasone (1 mg/kg), was chosen as a positive control because it is a well studied corticosteroid that reduces swelling and inflammation and is used in a variety of disorders such as skin diseases (psoriasis, hives), allergic conditions, breathing problems, cancer, blood disorders (anemia), digestive problems, eye disorders and for the treatment of arthritis. Although effective as an anti-inflammatory agent, dexamethasone is also known to induce a number of side effects, which amongst others include in humans the induction of osteoporosis, reduced adrenal function, dizziness, nausea, indigestion, increased appetite, weight gain due to enhanced water retention, weakness and/or sleep disturbances. In addition, systemic dexamethasone treatment in rodents results in strong catabolic effects that can be easily observed as weight loss (Orzechowski et al. 2002, “Rats with a glucocorticoid-induced catabolic state show symptoms of oxidative stress and spleen atrophy: the effects of age and recovery”. J Vet Med A Physiol Pathol Clin Med; 49:256-63).
All groups used in the study consisted of 13 mice. During the study animals were weighed and monitored for clinical signs of arthritis. Scoring of disease severity (clinical arthritis score) was performed according to scoring system described by Joosten et al. 1997 (J. Immunol., 159:4094-4102) and Joosten et al. 1999 (J. Immunol., 163:5049-55).
Basic statistical analyses were performed as follows: The significance of differences between all treatment groups in the main clinical outcome parameters was tested using analysis of variance (ANOVA). Each significant ANOVA was followed by post hoc Tukey tests to determine the significance of the difference between each treatment group and the control group. Furthermore, linear regression analysis was used to study the dose-dependency of the effects of treatment with estetrol. All statistical analysis were performed using statistical software program SPSS 10.0 for Windows (SPSS Inc., Chicago, Ill., USA).

[2] = molecular target: T1, human sex Hormone Binding Globulin (SHBG) (Homo sapiens, UniProt P04278); assay: Competitive steroid-binding assay for SHBG
T1 construct: made in house; host or cells: transgenic mouse (serum)
T1 sequence (P04278 30-402): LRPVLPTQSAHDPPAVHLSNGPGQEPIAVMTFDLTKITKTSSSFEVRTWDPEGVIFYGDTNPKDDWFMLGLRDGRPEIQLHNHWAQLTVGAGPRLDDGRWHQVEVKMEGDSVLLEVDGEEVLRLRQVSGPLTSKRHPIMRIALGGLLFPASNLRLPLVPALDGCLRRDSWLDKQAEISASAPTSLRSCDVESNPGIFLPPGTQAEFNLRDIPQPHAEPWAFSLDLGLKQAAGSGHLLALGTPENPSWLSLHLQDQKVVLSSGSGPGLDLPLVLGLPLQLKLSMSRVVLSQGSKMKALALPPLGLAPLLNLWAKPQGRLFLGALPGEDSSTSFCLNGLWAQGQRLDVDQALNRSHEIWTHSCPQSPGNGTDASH
Experimental: Human SHBG was treated for 30 min at room temperature with a dextran-coated charcoal (DCC) suspension in phosphate buffered saline (PBS) to remove any steroid ligand. After centrifugation (2,000×g for 10 min) to sediment the DCC, the supernatant containing the human SHBG was diluted in PBS to a concentration of 1 nM based on its steroid binding capacity.
The average amounts of [^3H]labeled ligands bound to SHBG at each concentration of competitor (B) were expressed as a percentage of the average amounts of [^3H]labeled ligands bound to SHBG in the absence of competitor (B0), and were plotted against the concentration of competitor in each assay tube.

[3] = Single rising oral dose study in healthy postmenopausal volunteers; format: in vivo, human
Experimental: To determine the bioavailability and elimination half-life of estetrol after oral dosing in humans a single rising dosing study was performed in healthy postmenopausal volunteers. Volunteers (n=6) were randomly assigned to 0.1, 1 or 10 mg estetrol and blood samples (18 per volunteer) were obtained over a period of 72 hours.
After thawing the plasma samples, liquid-liquid extraction (hexane and diethyl ether) was employed to prepare the estetrol-containing plasma samples for HPLC analysis (Perkin Elmer 200) and tandem mass spectrometry using a PE Sciex 4000 tandem mass spectrometer and APCI interface. With each sample batch, a calibration curve with 6 calibrators was recorded. The calibration curve was calculated using linear regression (correlation coefficient >0.98), which permitted quantitation of plasma concentrations.

[4] = tested on: human breast cancer cells (MCF-7); settings: in vitro cell proliferation, Jozan et al. 1981; cited from earlier work

## C[C@]12CC[C@@H]3c4ccc(O)cc4CC[C@H]3[C@@H]1[C@@H](O)[C@@H](O)[C@@H]2O [E4, 1,3,5 (10)-estratrien-3,15α,16α,17β-tetrol]
[1]; oral 0.1 mg/kg
  average day of disease onset (arthritis): 25.8 days
[1]; oral 0.3 mg/kg
  average day of disease onset (arthritis): 26.0 days
[1]; oral 1.0 mg and 3.0 mg/kg groups
  increase in disease incidence versus vehicle: clearly delayed
[1]; oral 1.0 mg/kg
  average day of disease onset (arthritis): 28.2 days
[1]; oral 3.0 mg/kg, day 28
  body weight, % of initial weight (day 21): 99.3%
[1]; oral 3.0 mg/kg, day 35
  body weight, % of initial weight (day 21): 96.7%
[1]; oral 3.0 mg/kg, day 42
  body weight, % of initial weight (day 21): 97.9%
[1]; oral 3.0 mg/kg
  average day of disease onset (arthritis): 30.7 days
[1]; oral 0.1-3 mg/kg, day 21 to 42
  average cumulative arthritis score: dose-dependently reduced and significantly different as compared to vehicle-treated animals
[1]; oral 0.1-3 mg/kg, day 22-42
  development of macroscopical arthritis score: dose-dependently reduced
[1]; oral, lower three doses (0.1, 0.3 and 1.0 mg/kg)
  weight loss: comparable to the negative and positive control animal groups
[2]; [3H]DHT as labeled ligand
  binding to human SHBG: does not bind at all
[2]; [3H]estradiol as labeled ligand
  binding to human SHBG: does not bind at all
[2]; comparison among tested steroids, order ethinylestradiol, 17β-estradiol, testosterone, 5α-dihydrotestosterone
  relative binding affinity for human SHBG: negligible
[3]; female, human, plasma, po, human postmenopausal subjects, read-out: elimination half-life
  half-life: > 15 h
[3]; oral single dose 0.1, 1, 10 mg, postmenopausal volunteers
  tolerability: Good tolerability
[3]; oral single dose 0.1 to 10 mg, postmenopausal volunteers
  AUC dose-linearity: good dose-linearity
[4]
  agonistic potency relative to 17β-estradiol: 2%
